PubChem BioAssay (NCI)
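Tested at 5 concentrations; 48 h exposure; 96-well plates; endpoints linearly interpolated, else capped at highest concentration. TGI marks complete inhibition of growth.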

Legend:
Assay in all cases: NCI anticancer screen, dose series, 48 h
[1] = system: BT-549 breast
[2] = system: IGROV1 ovarian
[3] = system: HOP-62 NSCLC
[4] = system: SK-MEL-5 melanoma
[5] = system: HCT-116 colon
[6] = system: KM12 colon
[7] = system: UO-31 renal
[8] = system: CAKI-1 renal
[9] = system: SF-268 CNS
[10] = system: LOX IMVI melanoma
[11] = system: RXF 393 renal
[12] = system: MALME-3M melanoma
[13] = system: SW-620 colon
[14] = system: HL-60(TB) leukemia
[15] = system: NCI-H226 lung
[16] = system: PC-3 prostate
[17] = system: HOP-92 NSCLC
[18] = system: M14 melanoma
[19] = system: DU-145 prostate
[20] = system: 786-0 renal

SMILES	TGI [1] [µM]	TGI [2] [µM]	TGI [3] [µM]	TGI [4] [µM]	TGI [5] [µM]	TGI [6] [µM]	TGI [7] [µM]	TGI [8] [µM]	TGI [9] [µM]	TGI [10] [µM]	TGI [11] [µM]	TGI [12] [µM]	TGI [13] [µM]	TGI [14] [µM]	TGI [15] [µM]	TGI [16] [µM]	TGI [17] [µM]	TGI [18] [µM]	TGI [19] [µM]	TGI [20] [µM]
CO[C@@H]1C[C@H]2N3CC[C@@]2(c2cc4c(cc2C3)OCO4)[C@H]2O[C@@H]12	> 100	> 100	> 100	0.303	> 100	> 100	> 100	> 100	> 100	> 100	> 100	> 100	> 100	> 100	4.59	> 100	> 100	> 100	> 100	> 100
O=c1c2cc(I)ccc2nc(SCc2n[nH]c(=S)o2)n1Cc1ccccc1	37.1	35.3	41	26.2	29.4	40.4	3.43	22.4	32.9	29.1	10.9	34.8	39.6	16.5	27.6	31.3	27.9	43.6	31.1	30.3
COC(=O)[C@]1(c2cc3ccccc3[nH]2)CC2CN(CC(=O)N(C)OC)C1CC2(OC)OC (some centres undefined)	59.8	> 100	> 100	> 100	70.7	> 100	> 100	56	> 100	> 100	> 100	> 100	> 100	39.5	> 100	71.9	> 100	> 100	> 100	57.7
CC(C)(C)OC(=O)C1=C2C=C(O)C=CC2(C)N(Cc2ccccc2)C1=N (centres undefined)	4.58	16.6	30.7	15.9	9.83	23.1	10.7	4.19	–	8.44	6.96	10.9	5.69	6.35	28.6	19.8	5.91	10.4	12.8	12.7
Cc1ccc(N=NN(C)C(=O)C(C)N)cc1 (centres undefined)	> 100	> 100	> 100	> 100	> 100	> 100	> 100	> 100	> 100	> 100	> 100	> 100	> 100	> 100	> 100	> 100	> 100	> 100	> 100	> 100
CC(C)(C)OC(=O)c1ccc(NCC2=CC(=O)C=CC2=O)cc1	29.5	23.9	> 61.8	29	26.2	29.6	19.7	3.39	24.3	22.6	23.6	9.82	22.6	3.29	40.5	24.4	4.4	17.6	31.6	22
